Assay results reported in patent US20110045076A1, “LINEAR ORDER RELEASE POLYMER” (priority 2008, published 2011).

Tests used:
Type in all cases: physicochemical
[1] = In vitro release of AMP from PEG2000-containing PU rods; conditions: pH 4.2 acetate buffer; for release profile: 37° C.
Description: Incorporation of AMP in PU matrix: Homogenous distribution of AMP and PEG2000 in the PU matrix was achieved by solvent casting. AMP (500 mg), PEG2000 (500 mg (5% w/w), 1000 mg (10% w/w) and 1500 mg (15% w/w)) and PU (added to make the total weight of PEG+AMP+PU mixture to 10 g) were dissolved in 75:25 mixture of dichloromethane and tetrahydrofuran. About 75% of the solvent was removed under reduced pressure and the viscous solution of PU, AMP and PEG2000 was poured into a silanized crystallization flask which was further dried under air at a flow rate of 4 L/min for 2-3 days. The […] incorporated PU films thus obtained were cut into small pieces and further dried under high vacuum until constant weight was achieved.
Extrusion of PEG2000 and AMP loaded solid cross-sectional PU: Extrusion was conducted at 165-175° C. into solid cross-sectional rods using a lab scale extruder (CSI Max Mixing Extruder CS-194A, Custom Scientific Instrument Inc., Easton, Pa.). The extruded and molten polymer output from the extruder was immediately fed to an aluminum mold (4.3 mm diameter, 25 cm length, previously spray coated with mold release agent) maintained at 120° C. The mold was cooled to below 80° C. and opened carefully without stretching the PU rod. The release profile of AMP was measured from PU rods using pH 4.2 25 mM acetate buffer (osmolarity adjusted to 310 mOsm/kg using NaCl, 0.02% sodium azide) at 37° C. and 60 rpm. About 2 cm length segments were cut from the solid cross-sectional AMP loaded PU rods. The dimensions (length and diameter) and weight of each segment were recorded. The sink was replaced with fresh buffer every 24±0.5 h for 10 days. HPLC analyses were performed and the cumulative release was calculated by integrating the area under the curve using Kaleidagraph software (Synergy Software, Reading, Pa.). The release study for each loading was performed on triplicate samples. […] A burst release is obtained in all PEG-PU compositions that is proportional to the PEG concentration.

[2] = Release of Tenofovir from Tecoflex EG-93A matrices with PEG2000 with and without salts; conditions: 5% w/w PEG
Description: Incorporation of Tenofovir and PEG2000 and salts in EG-93A matrices: Homogenous distribution of Tenofovir, PEG2000 with and without salts in Tecoflex EG-93A_matrices were achieved by solvent casting. Tenofovir (250 mg), PEG2000 (250 mg (5% w/w)) and salts (NaCl=50 mg (1% w/w) or 125 mg (2.5% w/w) or CaCl2=125 mg (2.5% w/w)) were dispersed in 75:25 mixture of dichloromethane and tetrahydrofuran followed by sonication for 30 minutes. About 75% of the solvent was removed under reduced pressure and the viscous solution was poured into a silanized crystallization flask which was further dried under air at a flow rate of 4 L/min for 2-3 days. The Tenofovir incorporated polymer films thus obtained were cut into small pieces and further dried under high vacuum until constant weight was achieved. About 1.2 g of the polymer film pieces were taken in a 20 mL scintillation vial which was incubated at 210° C. for about 5-6 minutes to allow the polymer pieces to melt and fuse to form a continuous film in the bottom of the vial. Then 5 mL of sink (25 mM pH 4.2 buffer, osmolarity adjusted to 310 mOsm/kg with NaCl, and 0.02% sodium azide) was added. The sink was replaced with fresh buffer every 24±0.5 h for 15 days. HPLC analyses were performed and the cumulative release was calculated by integrating the area under the curve using Kaleidagraph software (Synergy Software, Reading, Pa.). […]

[3] = Release of Tenofovir from Tecoflex EG-80A and EG-85A small rings with and without PEG2000; conditions: Tecoflex EG-80A and EG-85A matrices, 50 mg/g, 5% w/w PEG, pH 4.2 acetate buffer, 15 days
Description: Incorporation of Tenofovir and PEG2000 in Tecoflex EG-80A and EG-85A matrices: Homogenous distribution of Tenofovir and PEG2000 in Tecoflex EG-80A or EG-85A_matrices were achieved by solvent casting. Tenofovir (500 mg) with or without PEG2000 (500 mg) were dissolved in 75:25 mixture of dichloromethane and tetrahydrofuran. About 75% of the solvent was removed under reduced pressure and the viscous solution was poured into a silanized crystallization flask which was further dried under air at a flow rate of 4 L/min for 2-3 days. The Tenofovir incorporated polymer films thus obtained were cut into small pieces and further dried under high vacuum until constant weight was achieved.
Solid cross-sectional rods were obtained by extrusion of polymer films obtained in the above step at 155-165° C. using a lab scale extruder (CSI Max Mixing Extruder CS-194A, Custom Scientific Instrument Inc., Easton, Pa.). Small rings were fabricated by joining the ends of rods of approximately 6 cm in length. The release profile of Tenofovir was measured from Tenofovir loaded small rings using pH 4.2 25 mM acetate buffer (osmolarity adjusted to 310 mOsm/kg using NaCl, 0.02% sodium azide) at 37° C. and 60 rpm. […] HPLC analyses were performed and the cumulative release was calculated by integrating the area under the curve using Kaleidagraph software (Synergy Software, Reading, Pa.). […]

Compound	release profile ([1]; 5% w/w PEG in PU)	release profile ([1]; 10% w/w PEG in PU)	release profile ([1]; 15% w/w PEG in PU)	effect of PEG incorporation on release ([1]; PEG-PU rods vs PU)	release profile ([2]; 2.5 w/w CaCl2)	release profile ([2]; 2.5 w/w NaCl)	effect of PEG incorporation on release [3]
Nc1ncnc2c1ncn2[C@@H]1O[C@H](COP(=O)(O)O)[C@@H](O)[C@H]1O [AMP, Adenosine Monophosphate]	zero order	diffusion limited	diffusion limited	increases the overall amount of drug released per day	–	–	–
C[C@H](Cn1cnc2c(N)ncnc21)OCP(=O)(O)O [Tenofovir, ({[(2R)-1-(6-amino-9H-purin-9-yl)propan-2-yl]oxy}methyl)phosphonic acid]	–	–	–	–	nearly zero-order release	nearly zero-order release	increases the overall amount of drug released per day
